Measured values reported in patent US8575091B1, “Amylin analogues and pharmaceutical compositions thereof” (Novo Nordisk A/S, priority 2012, dated 2013).
Numbered stars: 1 amine (or outer) side, 2 acyl side, 3 side chain; on linkers, the order of the positions; unused ones are H or OH. Bridge positions count the residues as written; N and C are the ends. Side chains are listed from the residue outwards. Peptide text beside a SMILES is read from it. * marks the point of attachment. C20 diacid = O=C(O)CCCCCCCCCCCCCCCCCCC(=O)*; γGlu = O=C(O)[C@H](CCC(=O)[*:2])N[*:1]; AEEA = NCCOCCOCC(=O)O

Biological target: T1, human amylin receptor (amylin 3(a) receptor: human calcitonin receptor + RAMP-3) (Homo sapiens, UniProt O60896+P30988)
T1 construct: expressed in transfected cells
T1 sequence (P30988 25-474): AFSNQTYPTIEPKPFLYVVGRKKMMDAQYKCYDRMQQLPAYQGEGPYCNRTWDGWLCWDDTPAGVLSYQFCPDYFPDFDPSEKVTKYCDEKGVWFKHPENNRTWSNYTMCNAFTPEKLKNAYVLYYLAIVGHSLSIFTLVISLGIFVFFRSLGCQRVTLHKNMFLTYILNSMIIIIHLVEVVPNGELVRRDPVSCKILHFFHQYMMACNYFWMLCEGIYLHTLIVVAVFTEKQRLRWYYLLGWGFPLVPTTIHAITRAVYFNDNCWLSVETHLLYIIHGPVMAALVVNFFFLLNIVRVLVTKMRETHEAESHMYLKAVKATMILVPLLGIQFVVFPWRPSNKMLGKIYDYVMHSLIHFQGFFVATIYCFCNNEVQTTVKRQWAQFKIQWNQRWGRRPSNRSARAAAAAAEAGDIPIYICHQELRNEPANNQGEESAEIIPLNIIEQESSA
T1 sequence (O60896 24-148 partner): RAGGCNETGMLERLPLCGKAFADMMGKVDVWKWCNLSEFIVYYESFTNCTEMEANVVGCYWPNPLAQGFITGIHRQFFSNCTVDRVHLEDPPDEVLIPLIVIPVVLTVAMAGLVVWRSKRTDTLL
Experiment: Assay (II)a functional assay, human amylin receptor (CRE luciferase, BHK cells)
Assay type: cell-based

[1] = Table 6, human functional selectivity (hCTR EC50 / hAmylin-R EC50)
[2] = Table 6a, human functional selectivity (hCTR EC50 / hAmylin-R EC50), at least 5
[3] = Table 6j, hCTR funct. EC50 / hAmylin-R funct. EC50
[4] = Table 6k, hCTR funct. EC50 / hAmylin-R funct. EC50

SMILES	Ratio hCT/hAmylin funct. [1]	Ratio hCT/hAmylin funct. [2]	Ratio hCT/hAmylin funct. [3]	Ratio hCT/hAmylin funct. [4]
CC[C@H](C)[C@H](NC(=O)[C@H](C)NC(=O)CNC(=O)[C@H](Cc1ccccc1)NC(=O)[C@H](CC(N)=O)NC(=O)[C@@H]1CCCN1C(=O)[C@H](CO)NC(=O)[C@H](CO)NC(=O)[C@H](Cc1c[nH]cn1)NC(=O)[C@H](CCCNC(=N)N)NC(=O)[C@H](CC(C)C)NC(=O)[C@H](Cc1ccccc1)NC(=O)[C@H](CC(N)=O)NC(=O)[C@H](C)NC(=O)[C@H](CC(C)C)NC(=O)[C@H](CCCNC(=N)N)NC(=O)[C@H](CCC(N)=O)NC(=O)[C@@H](NC(=O)[C@H](C)NC(=O)[C@@H]1CSSC[C@H](NC(=O)[C@@H](N)CCCCNC(=O)COCCOCCNC(=O)CC[C@H](NC(=O)CCCCCCCCCCCCCCCCCCC(=O)O)C(=O)O)C(=O)N[C@@H](CC(N)=O)C(=O)N[C@@H]([C@@H](C)O)C(=O)N[C@@H](C)C(=O)N[C@@H]([C@@H](C)O)C(=O)N1)[C@@H](C)O)C(=O)N1CCC[C@H]1C(=O)N[C@@H](CO)C(=O)N1CCC[C@H]1C(=O)N[C@H](C(=O)N1CCC[C@H]1C(=O)N[C@H](C(=O)NCC(=O)N[C@@H](CO)C(=O)N[C@@H](CC(N)=O)C(=O)N[C@H](C(=O)N[C@@H](Cc1ccc(O)cc1)C(N)=O)[C@@H](C)O)C(C)C)[C@@H](C)O [Example 54] (H-K([AEEA-γGlu-C20 diacid])CNTATCATQRLANFLRHSSPNFGAIPSPTPVGSNTY-NH2; disulfide 2-7; N-terminus assumed)	9.6	9.6	9.6	9.6
CC[C@H](C)[C@H](NC(=O)[C@H](C)NC(=O)CNC(=O)[C@H](Cc1ccccc1)NC(=O)[C@H](CC(N)=O)NC(=O)[C@@H]1CCCN1C(=O)[C@H](CO)NC(=O)[C@H](CO)NC(=O)[C@H](Cc1c[nH]cn1)NC(=O)[C@H](CCCNC(=N)N)NC(=O)[C@H](CC(C)C)NC(=O)[C@H](Cc1ccccc1)NC(=O)[C@H](CC(N)=O)NC(=O)[C@H](C)NC(=O)[C@H](CC(C)C)NC(=O)[C@H](CCCNC(=N)N)NC(=O)[C@H](CCC(N)=O)NC(=O)[C@@H](NC(=O)[C@H](C)NC(=O)[C@@H]1CSSC[C@H](NC(=O)[C@@H](N)CCCCNC(=O)COCCOCCNC(=O)COCCOCCNC(=O)CC[C@H](NC(=O)CCCCCCCCCCCCCCCCCCC(=O)O)C(=O)O)C(=O)N[C@@H](CC(N)=O)C(=O)N[C@@H]([C@@H](C)O)C(=O)N[C@@H](C)C(=O)N[C@@H]([C@@H](C)O)C(=O)N1)[C@@H](C)O)C(=O)N1CCC[C@H]1C(=O)N[C@@H](CO)C(=O)N[C@@H](CO)C(=O)N[C@H](C(=O)N[C@@H](CC(N)=O)C(=O)N[C@H](C(=O)NCC(=O)N[C@@H](CCCNC(=N)N)C(=O)N[C@@H](CC(N)=O)C(=O)N[C@H](C(=O)N[C@@H](Cc1ccc(O)cc1)C(N)=O)[C@@H](C)O)C(C)C)[C@@H](C)O [Example 95] (H-K([AEEA-AEEA-γGlu-C20 diacid])CNTATCATQRLANFLRHSSPNFGAIPSSTNVGRNTY-NH2; disulfide 2-7 (inferred); N-terminus and C-terminus assumed)	33.0	33.0	33.0	33.0
